The values below come from patent US9278992B2, “Function-selective vitamin D receptor agonist” (Nihon University, priority 2007, dated 2016).

In series [1] the test system is Cyp24a1, calbindin D9k, Trpv6, Trpv5. Kind of series: Example 5: oral administration to mice, mRNA expression in kidney and intestinal mucosa. In kind it is in vivo. The text has this: Blood was collected from the tail on days 0, 2, 4, 6, and 8, and by heart puncture on day 12. […]
(§1) Next, the in vivo effects of orally administered lithocholic acid derivatives (dissolved in corn oil) were examined.

The subject of another series is myeloid leukemia cells. To be noted: compared with 1,25(OH)2D3; Honma et al. 1983; cited from earlier work.
A short description of series [2]: Example 3: mice injected intraperitoneally, body weight and plasma calcium. The note with it: mouse, in vivo, ip.
Series [3] has as its system Cyp24a1, calbindin D9k, Trpv6, Trpv5. Briefly: Example 5: intraperitoneal administration to mice, mRNA expression in kidney and intestinal mucosa. Format: in vivo. The note with it: day 8. An excerpt:
Blood was collected by heart puncture on day 8 and tissue mRNAs on day 8 were examined.

The conditions of series [4]: Honma et al. 1983; cited from earlier work.
Series [5] has as its target T1, VDR (Homo sapiens, UniProt P11473).
T1 sequence (P11473 127-423 limits assumed): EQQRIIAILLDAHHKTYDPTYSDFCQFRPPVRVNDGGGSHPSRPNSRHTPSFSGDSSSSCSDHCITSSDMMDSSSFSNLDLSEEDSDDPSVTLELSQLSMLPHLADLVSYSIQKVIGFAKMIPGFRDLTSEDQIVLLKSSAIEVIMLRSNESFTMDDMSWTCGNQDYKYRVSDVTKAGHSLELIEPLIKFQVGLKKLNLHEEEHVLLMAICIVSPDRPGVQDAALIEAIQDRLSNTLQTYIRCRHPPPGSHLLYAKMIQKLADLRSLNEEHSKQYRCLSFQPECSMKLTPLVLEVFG
Kind of series: VDR activation, GAL4-VDR luciferase reporter in HEK293 cells. The note with it: compared with lithocholic acid and lithocholic acid acetate. For orientation: Reporter assays use an easily measured gene product as a stand-in for the process of interest.

The subject of series [6] is Human myeloid leukemia HL60 cells. Kind of series: Differentiation of myeloid leukemia HL60 cells (Nitro blue tetrazolium-reducing activity). In kind it is cell-based. To be noted: for induction of differentiation marker (Nitro blue tetrazolium-reducing activity), HL60 cells: 3 days.
The next series concerns VDR target gene CYP24. Briefly: Example 3: mice injected intraperitoneally, expression of VDR target gene CYP24 in kidney. The note with it: intraperitoneal, every other day, day 8. In kind it is in vivo.
Series [7] concerns the target T2, G protein-coupled bile acid receptor 1 (GPBAR1) (Homo sapiens, UniProt Q8TDU6).
T2 sequence (Q8TDU6 1-330): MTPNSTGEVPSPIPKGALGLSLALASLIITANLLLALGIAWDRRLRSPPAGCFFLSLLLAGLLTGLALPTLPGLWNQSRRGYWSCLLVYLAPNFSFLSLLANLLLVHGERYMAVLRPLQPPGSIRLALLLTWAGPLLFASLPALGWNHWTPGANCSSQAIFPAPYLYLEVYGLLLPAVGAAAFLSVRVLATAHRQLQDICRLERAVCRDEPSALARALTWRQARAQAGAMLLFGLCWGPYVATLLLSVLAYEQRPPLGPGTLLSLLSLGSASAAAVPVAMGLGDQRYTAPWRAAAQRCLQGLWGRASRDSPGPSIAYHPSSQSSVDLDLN
Briefly: Effect on GPBAR1 (FIG. 1). The note with it: 10 μM.

The target of series [8] is T3, farnesoid X receptor (FXR) (Homo sapiens, UniProt Q96RI1).
T3 sequence (Q96RI1 1-486): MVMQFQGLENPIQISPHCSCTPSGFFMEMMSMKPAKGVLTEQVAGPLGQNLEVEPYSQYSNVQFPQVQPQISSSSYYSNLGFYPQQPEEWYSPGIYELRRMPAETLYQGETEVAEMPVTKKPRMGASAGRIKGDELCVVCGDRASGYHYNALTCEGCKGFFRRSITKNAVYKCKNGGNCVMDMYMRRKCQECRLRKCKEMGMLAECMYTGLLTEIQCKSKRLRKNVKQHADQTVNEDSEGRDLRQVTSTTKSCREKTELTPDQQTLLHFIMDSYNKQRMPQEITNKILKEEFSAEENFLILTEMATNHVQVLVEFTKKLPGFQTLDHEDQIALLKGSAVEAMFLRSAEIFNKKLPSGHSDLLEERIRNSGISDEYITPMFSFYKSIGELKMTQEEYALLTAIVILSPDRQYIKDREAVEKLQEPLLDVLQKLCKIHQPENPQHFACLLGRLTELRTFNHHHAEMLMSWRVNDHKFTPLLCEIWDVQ
Kind of series: Effect on FXR (FIG. 1). The note with it: 18 μM.

Another series has as its system U937 cells. Briefly: Differentiation markers of myeloid leukemia U937 cells. Format: cell-based.
Series [9] in a line: Example 5: intraperitoneal administration to mice, body weight and plasma calcium. Format: in vivo. To be noted: 0.7 mmol/kg. The text has this:
[…]. […] […]. Blood was collected by heart puncture on day 8 and tissue mRNAs on day 8 were examined.

The subject of the next series is leukemic cells. The note with it: cited from earlier work.
Series [10] is described as follows: Example 5: oral administration to mice, body weight and plasma calcium. To be noted: oral (gavage), 1 mmol/kg.
Text: Blood was collected from the tail on days 0, 2, 4, 6, and 8, and by heart puncture on day 12. Tissue mRNAs on day 12 were examined. * indicates p<0.05; ** indicates p<0.01; *** indicates p<0.001, compared with vehicle control.
as §1

The target of series [11] is T3, farnesoid X receptor (FXR). To be noted: Non-Patent Documents 3 and 4; cited from earlier work.
Series [12] concerns the target T4, VDR (Homo sapiens, UniProt P11473).
T4 sequence (P11473 1-427): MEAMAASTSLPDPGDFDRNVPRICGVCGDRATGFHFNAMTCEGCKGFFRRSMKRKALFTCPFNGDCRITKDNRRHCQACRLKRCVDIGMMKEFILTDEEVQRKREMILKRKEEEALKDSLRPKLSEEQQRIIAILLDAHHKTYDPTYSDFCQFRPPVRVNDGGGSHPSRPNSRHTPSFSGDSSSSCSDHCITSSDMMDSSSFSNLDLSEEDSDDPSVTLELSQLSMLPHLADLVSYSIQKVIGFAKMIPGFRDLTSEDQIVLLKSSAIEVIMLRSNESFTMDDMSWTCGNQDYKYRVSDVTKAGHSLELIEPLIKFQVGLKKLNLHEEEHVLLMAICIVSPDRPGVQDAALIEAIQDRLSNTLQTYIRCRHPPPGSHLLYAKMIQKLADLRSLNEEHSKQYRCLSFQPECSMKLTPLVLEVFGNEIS
To be noted: Non-Patent Documents 2 and 3; cited from earlier work.

Entries after “also recorded” stand apart in the source; their conditions may differ.

For `C=C1/C(=C\C=C2/CCC[C@]3(C)[C@@H]([C@H](C)CCCC(C)C)CC[C@@H]23)C[C@@H](O)C[C@@H]1O` [1α-hydroxyvitamin D3], in series [1] (1 day single oral dose (data not shown)), the “intestinal mucosa Cyp24a1 expression” value is on record as “not observed”. For the same compound, the “intestinal mucosa Cyp24a1 expression” value in series [1] (10 day oral administration, 12.5 nmol/kg) is recorded as “not increased”. The “survival time of the mice inoculated with leukemia cells” value in the series with myeloid leukemia cells is on record as “more effective than 1,25(OH)2D3 in increasing the survival time”. Besides, in series [2], the “body weight of mice” value is recorded as “decreased the body weight of mice”. In series [3] (12.5 nmol/kg), the “intestinal mucosa Cyp24a1 expression” value is recorded as “induced the intestinal mucosa Cyp24a1 expression”, the “kidney Cyp24a1 expression” value was “effectively induced the expression”, the “kidney Trpv5 expression” value was “effectively induced the expression” and the “kidney Trpv6 expression” value is given as “effectively induced the expression”. For the same compound, the “kidney calbindin D9k expression” value in series [3] (12.5 nmol/kg) is “effectively induced the expression”. For the same compound, the “conversion to 1,25-dihydroxyvitamin D3 after injection” value in [4] is on record as “rapidly converted to 1,25-dihydroxyvitamin D3”.
On to `CCC(=O)O[C@@H]1CC[C@@]2(C)[C@H](CC[C@@H]3[C@@H]2CC[C@]2(C)[C@@H]([C@H](C)CCC(=O)O)CC[C@@H]32)C1` [lithocholic acid propionate], for which the “selectivity as VDR ligand (VDR versus FXR and GPBAR1)” value on VDR [5] was “more selective VDR ligand (activating agent) than lithocholic acid and lithocholic acid acetate”. In addition, the “induction of differentiation markers, HL-60 cells” value in series [6] is recorded as “induced the differentiation markers”. Besides, the results for the “induction of differentiation marker (Nitro blue tetrazolium-reducing activity), HL60 cells” value in series [6] (10 μM) and in series [6] (30 μM) were “weakly” and “effectively”, respectively. In the series on VDR target gene CYP24, the “expression of the VDR target gene CYP24 in kidney” value is “induced the expression of the VDR target gene in the organ”. For the same compound, the “effects on GPBAR1” value in series [7] was “extremely weak effects”. Moreover, the “kidney Cyp24a1 expression” value in series [1] (oral (gavage), 0.7 mmol/kg and 1 mmol/kg, day 12) is recorded as “induced the kidney Cyp24a1 expression as effectively as 1α(OH)D3”; in [3] (0.7 mmol/kg), “induced the expression of kidney Cyp24a1 as effectively as 1α(OH)D3”. In series [1] (oral (gavage), day 12), the “kidney calbindin D9k expression” value is recorded as “not induced”. For the same compound, the “body weight of mice” value in series [2] is on record as “did not adversely affect the body weight or the blood calcium level”. In addition, in series [8], the “potency on FXR” value was “extremely weak potency on FXR”. The “intestinal mucosa target gene expression” value in series [3] (0.7 mmol/kg) is reported as “not effective in inducing intestinal mucosa target gene expression”. Also, the “induction of differentiation markers, U937 cells” value in the series with U937 cells was “induced the differentiation markers”.
As for lithocholic acid acetate, the body weight result was “did not decrease their body weight” in series [9] and “did not affect the body weight or plasma calcium” in series [10]. Moreover, in the series with leukemic cells, the “differentiation of leukemic cells” value is given as “induced the differentiation of leukemic cells”. Besides, the figures for the “induction of differentiation marker (Nitro blue tetrazolium-reducing activity), HL60 cells” value in series [6] (10 μM) and in [6] (30 μM) were “weakly” and “effectively”, respectively. Also, the plasma calcium entry in [10] is recorded as “did not affect the body weight or plasma calcium”. In addition, in series [11], the “activity on FXR” value was “weaker than that of chenodeoxycholic acid and comparable to that of lithocholic acid”. The “function and potency as VDR ligand” value on VDR [12] is “activated VDR more potently than lithocholic acid; also recorded: more potency on VDR than lithocholic acid”.
